From patent publication US10729668B2, “Ketobutyrate compounds and compositions for treating age-related symptoms and diseases” (The Regents of the University of California, priority 2014, dated 2020)

Experiments:
C2C12 Cells = test: Cellular ROS measurement with H2DCF-DA; type: cell-based, mouse; conditions: 3 hours of drug treatment
Protocol: Measurement of ROS. C2C12 cells were seeded in 96-well plates at density of 250,000 cells/mL. Reactive oxygen species (ROS) levels were measured using 2′, 7′-dichlorodihydrofluorescein diacetate (H2DCF-DA) after 3 hours of drug treatment.

Huh7.5 cells = test: MTT cytotoxicity assay; type: cell-based; conditions: 100 nM to 1 mM, up to 72 hours
Protocol: (§1) As subjects age, their susceptibility to infection increases. Therefore, to determine whether α-KB reduces ones susceptibility to age-related infection, Huh7.5 cells were infected with the Renilla reporter HCV for 5 hours and subsequently treated with 1 mM and 1 μM of α-KB. 72 hours post treatment, the cells were lysed and luciferase activity was measured. JG-98, which is a suppressor of viral assembly, was used as a positive control and water was used as a negative control. […] To ensure that the anti-viral activity of α-KB is not the result of cytotoxicity, Huh7.5 cells were treated with 1 mM, 100 μM, 10 μM, 1 μM, and 100 nM α-KB. MTT assays were performed every 24 hours up to 72 hours post treatment. Luteolin, an anti-cancer compound which is cytotoxic, was used as a positive control and water was used as a negative control.

[1] = test system: ETC Complex I diaphorase (NADH: acceptor oxidoreductase); test: Complex I Enzyme Activity Microplate Assay (diaphorase); type: biochemical, bovine; conditions: 200 and 800 μM
Protocol: To assess if α-KB can affect the diaphorase (NADH: acceptor oxidoreductase) activity of Complex I, the Complex I Enzyme Activity Microplate Assay Kit (Abcam, ab109721) was used. The assay was performed according to the protocol provided. Bovine Heart Mitochondria lysate (Abcam, ab110338) was added with detergent, followed by incubation on ice for 30 minutes to release Complex I and then centrifuged at 12,000 g, 4° C. for 20 minutes. Supernatant was collected and diluted with the buffer provided and then added to a Complex I antibody-coated 96-well plate. After a 3 hour incubation followed by 2× wash with stabilizer buffer, the wells were added with 200 μL of reaction mix containing 50, 200, or 800 μM α-KB or vehicle control (distilled water). Each condition was performed in triplicates. Kinetic measurements of absorbance at 450 nm with 1 minute intervals were taken, and Complex I diaphorase activity was calculated from the slope of the absorbance to time. The readings were normalized to vehicle mean (as 100 percent).

C. elegans = test: Lifespan of adult C. elegans on treatment plates; type: in vivo, Caenorhabditis elegans
Protocol: C. elegans were synchronized by performing either a timed egg lay or an egg preparation (mix <100 gravid worms in 70 μl M9 buffer, 25 μl bleach, and 5 μl 10 N NaOH). Once the worms reached adulthood, they were picked onto NGM treatment plates containing 1.5% dimethyl sulfoxide (DMSO; Sigma D8418), 49.5 μM 5-fluoro-2′-deoxyuridine (FUDR, Sigma F0503), 50 μg/ml ampicillin, and α-KB (Sigma K401). Plates containing α-KB were adjusted to pH 6.0 (i.e., the same pH as the control plates) by the addition of NaOH. Treatment plates were seeded with OP50 E. coli as the C. elegans food source. […] Worms were moved to new plates every 4 days. All lifespan experiments were conducted at 20° C.

HCV = test: Renilla reporter HCV infection of Huh7.5 cells, luciferase activity; type: cell-based; conditions: 1 mM and 1 μM, 72 hours post treatment
Protocol: as §1

[2] = test system: NADH dehydrogenase (Complex I); test: NADH dehydrogenase (Complex I) driven coupling assay, isolated liver mitochondria (pyruvate and malate); type: biochemical, mouse; conditions: respiration driven by pyruvate and malate
Protocol: Animal studies were performed under approved UCLA animal research protocols. Mitochondria from 3-month-old C57BL/6 mice were isolated. Briefly, livers were extracted, minced at 4° C. in MSHE+BSA (70 mM sucrose, 210 mM mannitol, 5 mM HEPES, 1 mM EGTA, and 0.5% fatty acid free BSA, pH 7.2), and rinsed several times to remove blood. All subsequent steps were performed on ice or at 4° C. The tissue was disrupted in 10 volumes of MSHE+BSA with a glass Dounce homogenizer (5-6 strokes) and the homogenate was centrifuged at 800×g for 10 minutes to remove tissue debris and nuclei. The supernatant was decanted through a cell strainer and centrifuged at 8,000×g for 10 minutes. The dark mitochondrial pellet was resuspended in MSHE+BSA and re-centrifuged at 8,000×g for 10 minutes. The final mitochondrial pellet was resuspended in 30 μl of MAS buffer (70 mM sucrose, 220 mM mannitol, 10 mM KH2PO4, 5 mM MgCl2, 2 mM HEPES, 1 mM EGTA, and 0.2% fatty acid free BSA, pH 7.2). Isolated mitochondrial respiration was measured by running coupling and electron flow assays as described. […]
Mitochondrial respiration was measured by running coupling and electron flow assays. […]

CCC(=O)C(=O)O [α-KB, α-ketobutyrate]
cellular ROS (C2C12 Cells): increases the cellular ROS
cytotoxicity (MTT) (Huh7.5 cells): not cytotoxic
Complex I diaphorase activity [1]: directly inhibits
lifespan as compared to untreated control subjects (C. elegans; adult C. elegans, 20° C.): extends the lifespan
potency relative to α-KG in treating, inhibiting, or reducing aging and age-related symptoms (C. elegans; in vivo): about 1 fold
HCV infection (luciferase activity) (HCV): inhibits or reduces viral infection
ADP-induced and FCCP-induced respiration [2]: significant decrease
